SMILES strings stand for the structures.

Our source for the IC50 values is publication PMC3050028 (Neuron, 2011).

This assay concerns the target T1, IR84a (Drosophila melanogaster, UniProt Q9VIA5).
T1 sequence (Q9VIA5 25-644): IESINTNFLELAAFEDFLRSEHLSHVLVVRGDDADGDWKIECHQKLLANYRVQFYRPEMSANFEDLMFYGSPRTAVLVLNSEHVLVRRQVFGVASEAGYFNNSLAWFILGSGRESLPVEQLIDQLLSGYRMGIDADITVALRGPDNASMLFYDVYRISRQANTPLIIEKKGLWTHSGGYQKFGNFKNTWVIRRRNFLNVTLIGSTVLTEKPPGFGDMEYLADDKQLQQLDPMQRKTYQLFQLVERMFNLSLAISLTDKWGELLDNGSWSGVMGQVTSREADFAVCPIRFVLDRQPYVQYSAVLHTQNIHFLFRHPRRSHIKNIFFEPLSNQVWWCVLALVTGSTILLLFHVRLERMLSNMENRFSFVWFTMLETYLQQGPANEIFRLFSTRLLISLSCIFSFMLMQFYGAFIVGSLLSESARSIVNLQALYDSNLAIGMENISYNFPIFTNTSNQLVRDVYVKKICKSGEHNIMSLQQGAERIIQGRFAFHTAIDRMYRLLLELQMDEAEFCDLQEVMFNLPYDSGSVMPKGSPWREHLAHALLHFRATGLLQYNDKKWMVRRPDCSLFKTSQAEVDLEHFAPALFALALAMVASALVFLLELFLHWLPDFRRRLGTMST
T1 sequence (Q9W365 18-936 partner): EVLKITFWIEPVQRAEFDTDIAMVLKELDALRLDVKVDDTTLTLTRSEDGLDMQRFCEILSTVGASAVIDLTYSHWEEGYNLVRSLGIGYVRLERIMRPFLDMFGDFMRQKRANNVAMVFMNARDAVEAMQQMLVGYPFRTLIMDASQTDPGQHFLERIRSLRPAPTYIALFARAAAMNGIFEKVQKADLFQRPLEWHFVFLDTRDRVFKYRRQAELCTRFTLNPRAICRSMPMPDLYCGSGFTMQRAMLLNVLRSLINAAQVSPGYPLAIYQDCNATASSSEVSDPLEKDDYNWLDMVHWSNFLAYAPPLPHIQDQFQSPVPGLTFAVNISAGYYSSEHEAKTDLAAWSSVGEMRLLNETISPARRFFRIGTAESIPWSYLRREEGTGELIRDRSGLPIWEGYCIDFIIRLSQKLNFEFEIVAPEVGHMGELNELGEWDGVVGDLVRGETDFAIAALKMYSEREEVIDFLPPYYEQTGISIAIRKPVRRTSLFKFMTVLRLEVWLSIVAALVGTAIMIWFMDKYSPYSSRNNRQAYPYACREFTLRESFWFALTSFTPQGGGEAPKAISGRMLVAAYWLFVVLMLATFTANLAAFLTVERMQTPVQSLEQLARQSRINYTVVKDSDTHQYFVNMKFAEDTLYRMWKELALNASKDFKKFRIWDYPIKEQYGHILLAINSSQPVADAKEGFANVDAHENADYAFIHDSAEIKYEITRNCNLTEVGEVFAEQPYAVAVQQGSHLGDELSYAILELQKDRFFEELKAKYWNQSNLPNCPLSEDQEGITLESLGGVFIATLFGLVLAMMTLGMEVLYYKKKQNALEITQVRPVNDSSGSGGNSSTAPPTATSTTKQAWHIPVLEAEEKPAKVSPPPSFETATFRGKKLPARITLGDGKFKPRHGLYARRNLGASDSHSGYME
The class given is cell-based.

As usually defined, the IC50 is the concentration at which inhibition is half-maximal. The low end stands for higher potency, the high end for lower potency. Consider `CC12CC3CC(C)(C1)CC(N)(C3)C2` [memantine], for which the IC50 amounted to 39 ± 9 µM.
